Measured values published in patent publication US11696903B2, “Compounds and methods for scavenging dicarbonyl electrophiles” (VANDERBILT UNIVERSITY, priority 2019, dated 2023).

Columns and labels:
Format in all cases: in vivo
lysyl-LG adducts = experiment: Lysyl-LG adducts in gastric tissues of H. pylori-infected mice (LC/ESI/MS/MS); details: EtSA 0.75% in water from one wk post-infection, 8 wk infection
Experimental: FIGS. 15A, 15B, and 15C are graphs showing C57BL/6 (A) or INS-GAS mice (B) were infected for 8 weeks with H. pylori PMSS1. Lysyl-LG adducts were measured in the gastric tissues by LC/ESI/MS/MS. *P<0.05. (C) Lysyl-LG adducts concentration was determined in AGS cells infected (plain bars) or not (open bars) with H. pylori PMSS1 for 24 h, in the presence or absence of EtSA. *P<0.05 vs. uninfected cells. § P<0.05 vs. infected cells without EtSA.
FIG. 17 is a graph showing reduction in the concentration of lysyl-levuglandin adducts in the stomachs of H. pylori infected mice treated with 2-hydroxybenzylamine for 8 weeks.
As discussed further in the Examples, the human gastric epithelial cell line AGS was infected with Hp PMSS1±10 mM EtSA. FVB/N insulin-gastrin (INS-GAS) mice and Mongolian gerbils were infected for 8 wk with Hp PMSS1 and 7.13, respectively; EtSA (0.75% in water) was given to animals beginning one wk post-infection. Lys-LG adducts, a marker of electrophile reactions, and EtSA were quantified by LC/EST/MS/MS. Histology was analyzed on H&E staining. DNA damage was evaluated by pH2AX staining. Hp colonization was quantified by culture. Mucosal immune responses were determined by RNA profiling and by Luminex assay. Mice were imaged using PET/CT with ^18F-FDG (inflammation marker) and ^18F—NaF (tumor marker). […]

DNA damage (pH2AX) = experiment: DNA damage by pH2AX staining in infected mice; details: infected mice with EtSA treatment; p<0.05
Experimental: As discussed further in the Examples, the human gastric epithelial cell line AGS was infected with Hp PMSS1±10 mM EtSA. FVB/N insulin-gastrin (INS-GAS) mice and Mongolian gerbils were infected for 8 wk with Hp PMSS1 and 7.13, respectively; EtSA (0.75% in water) was given to animals beginning one wk post-infection. Lys-LG adducts, a marker of electrophile reactions, and EtSA were quantified by LC/EST/MS/MS. Histology was analyzed on H&E staining. DNA damage was evaluated by pH2AX staining. Hp colonization was quantified by culture. Mucosal immune responses were determined by RNA profiling and by Luminex assay. Mice were imaged using PET/CT with ^18F-FDG (inflammation marker) and ^18F—NaF (tumor marker).

[1] = Tolerability of EtHOBA in control mice (body weight, organs)
Experimental: FIGS. 3A and 3B show data from C57BL/6 mice were treated or not with various concentrations of EtHOBA. (A) Body weight was assessed every day. (B) After 6 days, mice were euthanized and EtHOBA was measured in the colon. n=5 mice/group.
The present inventors analyzed the effect of various concentrations of EtHOBA and its bioavailability in control mice. […] After 6 days of treatment, EtHOBA concentrations in the colon were analyzed using liquid chromatography electrospray ionization tandem mass spectrometry (LC/EST/MS/MS).

## CCc1ccc(O)c(CN)c1 [EtHOBA, 5-ethyl-2-hydroxybenzylamine]
lysyl-LG adducts
  Lys-LG adducts in infected mice: completely inhibited
DNA damage (pH2AX)
  decrease of DNA damage: 71%
[1]; 3.7 mg/ml EtHOBA, control mice, 6 days
  Body weight: lost weight on day 1, but did not lose additional weight and did not die
[1]; 0.37-1.5 mg/ml EtHOBA, compared to untreated mice
  Body weight: no loss of body weight
[1]; 1.5 or 3.7 mg/ml EtHOBA
  colon weight/length: no change in colon weight/length
  macroscopic evidence of organ damage: no macroscopic evidence of organ damage
